Reference: ChEMBL document CHEMBL1150200, “Apotirucallane Triterpenes from Dysoxylum roseum” (1991)
≈ marks a conversion by molar mass, not a printed value.

Test system: KB
Assay: Cytotoxicity against human KB cells
Type: functional
Details: read-out: ED50 (the source's name)

Work on `CC(C)=CC1C[C@@H]([C@@H]2CC=C3[C@]4(C)C(=O)C[C@@H]5[C@](C)(C=CC(=O)[C@]5(C)CO)[C@H]4CC[C@]32C)CO1` (stereo partly specified) [DYSORONE E] yielded an EC50 of 3.5 µg/mL (≈ 7.5 µM).
